Measured values as given in US12215173B2, “Kappa opioid receptor peptide amide ligands” (priority 2019, dated 2025).
Like-named read-outs stand apart in the source and are kept apart here. Square brackets hold non-standard residues; d marks the D form. Peptide text beside a SMILES is read from it. * marks the point of attachment. Piperidin1yl(4-NH2,4-CO2Me) = COC(=O)C1(N)CCN(*)CC1; Pyrrolidinyl(3-NH2,3-CO2Me) = COC(=O)C1(N)CCN(*)C1; dAla(cPr) = N[C@H](CC1CC1)C(=O)O

Experiments:
[1] = molecular target: recombinant human delta (DOR) opioid receptor (Homo sapiens (Human), UniProt P41143); assay: Opioid receptor radioligand binding assay, DOR
[2] = molecular target: Opioid Kappa Receptor (recombinant human, HEK293 cells) (Homo sapiens (Human), UniProt P41145); assay: cell-based; conditions: read-out: EC50
[3] = molecular target: recombinant human kappa (KOR) opioid receptor (Homo sapiens (Human), UniProt P41145); assay: biochemical; format: binding; conditions: HEK293 cell membranes, 0.5 nM [3H]diprenorphine
[4] = molecular target: recombinant human mu (MOR) opioid receptor (Homo sapiens (Human), UniProt P35372); assay: Opioid receptor radioligand binding assay, MOR
[5] = HEK293 cell membranes, 0.5 nM [3H]DADLE, read-out: DOR, IC50
[6] = HEK293 cell membranes, 0.5 nM [3H]DAMGO, read-out: MOR, IC50

Sequence of recombinant human delta (DOR) opioid receptor (P41143 whole entry, looked up): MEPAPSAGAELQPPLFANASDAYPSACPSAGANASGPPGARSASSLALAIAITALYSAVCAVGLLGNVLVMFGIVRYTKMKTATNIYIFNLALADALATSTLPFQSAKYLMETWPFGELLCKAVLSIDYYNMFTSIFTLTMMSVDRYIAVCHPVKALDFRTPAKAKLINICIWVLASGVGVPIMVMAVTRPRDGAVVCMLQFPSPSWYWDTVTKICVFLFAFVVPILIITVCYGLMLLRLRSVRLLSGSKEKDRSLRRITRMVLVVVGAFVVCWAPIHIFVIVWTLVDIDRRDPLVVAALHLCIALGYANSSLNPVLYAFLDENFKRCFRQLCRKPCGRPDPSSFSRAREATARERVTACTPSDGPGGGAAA

SMILES | IC50 [1, 5] | EC50 [2] | IC50 [3] | IC50 [4, 6] | IC50 [1] | IC50 [4] | IC50 ([4]; read-out: MOR, IC50)
COC(=O)C1(N)CCN(C(=O)[C@@H](CCCCN)NC(=O)[C@@H](CC2CC2)NC(=O)[C@@H](Cc2ccccc2)NC(=O)[C@H](N)Cc2ccccc2)CC1 [Compound 112] (H-[dF][dF][dAla(cPr)][dK]-{Piperidin1yl(4-NH2,4-CO2Me)}) | > 10000 nM | 5.95 nM | 1 nM | 15.2 nM | – | – | –
CC(C)C[C@@H](NC(=O)[C@@H](Cc1ccccc1)NC(=O)[C@H](N)Cc1ccccc1)C(=O)N[C@H](CCCCN)C(=O)NCc1ccncc1 [Compound 13-53] | – | 12.6 nM | 2.01 nM | – | > 10000 nM | 8750 nM | –
COC(=O)C1(N)CCN(C(=O)[C@@H](CCCNC(=N)N)NC(=O)[C@@H](CC2CC2)NC(=O)[C@@H](Cc2ccccc2)NC(=O)[C@H](N)Cc2ccccc2)C1 (stereo partly drawn) [Compound 133] (H-[dF][dF][dAla(cPr)][dR]-{Pyrrolidinyl(3-NH2,3-CO2Me)}) | > 10000 nM | 9.64 nM | 1.3 nM | > 10000 nM | – | – | –
CC(C)C[C@@H](NC(=O)[C@@H](Cc1ccccc1)NC(=O)[C@H](N)Cc1ccccc1)C(=O)N[C@H](CCCCN)C(=O)N1CC(=O)NC(=O)C1 [Compound 13-63] | > 10000 nM | 5.2 nM | 1.81 nM | > 10000 nM | – | – | –
COCCOC(=O)C1(N)CCN(C(=O)[C@@H](CCCCN)NC(=O)[C@@H](CC(C)C)NC(=O)[C@@H](Cc2ccccc2)NC(=O)[C@H](N)Cc2ccccc2)C1 (stereo partly drawn) [Compound 45] | > 10000 nM | 30.2 nM | 0.33 nM | 7370 nM | – | – | –
COC(=O)C1(N)CCN(C(=O)[C@@H](CCCNC(=N)N)NC(=O)[C@@H](CC2CC2)NC(=O)[C@@H](Cc2ccccc2)NC(=O)[C@H](N)Cc2ccccc2)CC1 [Compound 126] (H-[dF][dF][dAla(cPr)][dR]-{Piperidin1yl(4-NH2,4-CO2Me)}) | > 10000 nM | 6.81 nM | 0.36 nM | 3030 nM | – | – | –
CC(C)C[C@@H](NC(=O)[C@@H](Cc1ccccc1)NC(=O)[C@H](N)Cc1ccccc1)C(=O)N[C@H](CCCCN)C(=O)NCc1cc[nH]c(=O)c1 [Compound 13-9] | > 10000 nM | 18.1 nM | 0.41 nM | > 10000 nM | – | – | –
CC(C)C[C@@H](NC(=O)[C@@H](Cc1ccccc1)NC(=O)[C@H](N)Cc1ccccc1)C(=O)N[C@H](CCCCN)C(=O)NCCOCCOCCO [Compound 13-52] | > 10000 nM | 12.1 nM | 1.02 nM | > 10000 nM | – | – | –
CC(C)C[C@@H](NC(=O)[C@@H](Cc1ccccc1)NC(=O)[C@H](N)Cc1ccccc1)C(=O)N[C@H](CCCCN)C(=O)NC[C@H](N)C(=O)O [Compound 13-13] | > 10000 nM | 88.4 nM | 16.1 nM | > 10000 nM | – | – | –
CCNC(=O)N1CCN(C(=O)[C@@H](CCCCN)NC(=O)[C@@H](CC(C)C)NC(=O)[C@@H](Cc2ccccc2)NC(=O)[C@H](N)Cc2ccccc2)CC1 [Compound 13-64] | > 10000 nM | 2.91 nM | 0.47 nM | > 10000 nM | – | – | –
CNC(=O)C(=O)N1CCC(NC(=O)[C@@H](CCCCN)NC(=O)[C@@H](CC(C)C)NC(=O)[C@@H](Cc2ccccc2)NC(=O)[C@H](N)Cc2ccccc2)CC1 [Compound 13-32] | – | 26.5 nM | 8.49 nM | – | > 10000 nM | 7110 nM | –
CC(C)C[C@@H](NC(=O)[C@@H](Cc1ccccc1)NC(=O)[C@H](N)Cc1ccccc1)C(=O)N[C@H](CCCCN)C(=O)N1CCN(C(=O)C(=O)N(C)C)CC1 [Compound 13-26] | > 10000 nM | 10.2 nM | 1.83 nM | > 10000 nM | – | – | –
CC(C)C[C@@H](NC(=O)[C@@H](Cc1ccccc1)NC(=O)[C@H](N)Cc1ccccc1)C(=O)N[C@H](CCCCN)C(=O)N1CCC(NC(=O)CNC(N)=O)CC1 [Compound 13-55] | – | 20.4 nM | 0.35 nM | – | > 10000 nM | > 10000 nM | –
CC(C)C[C@@H](NC(=O)[C@@H](Cc1ccccc1)NC(=O)[C@H](N)Cc1ccccc1)C(=O)N[C@H](CCCCN)C(=O)N1CCN(C(=O)C(=O)NC2CC2)CC1 [Compound 13-23] | > 10000 nM | 8.58 nM | 0.79 nM | 318 nM | – | – | –
CCOC(=O)C1(N)CCN(C(=O)[C@@H](CCCCN)NC(=O)[C@@H](CC(C)C)NC(=O)[C@@H](Cc2ccccc2)NC(=O)[C@H](N)Cc2ccccc2)C1 (stereo partly drawn) [Compound 35] | – | 11.7 nM | 0.19 nM | – | > 10000 nM | 8180 nM | –
CCNC(=O)C(=O)N1CCC(NC(=O)[C@@H](CCCCN)NC(=O)[C@@H](CC(C)C)NC(=O)[C@@H](Cc2ccccc2)NC(=O)[C@H](N)Cc2ccccc2)CC1 [Compound 13-36] | > 10000 nM | 37.7 nM | 0.49 nM | > 10000 nM | – | – | –
CNC(=O)C(=O)NC1CCN(C(=O)[C@@H](CCCCN)NC(=O)[C@@H](CC(C)C)NC(=O)[C@@H](Cc2ccccc2)NC(=O)[C@H](N)Cc2ccccc2)CC1 [Compound 13-28] | > 10000 nM | 20.8 nM | 0.26 nM | > 10000 nM | – | – | –

SMILES | IC50 [1, 5] | EC50 [2] | IC50 [3] | IC50 [4, 6] | IC50 [1] | IC50 [4] | IC50 ([4]; read-out: MOR, IC50)
CC(C)C[C@@H](NC(=O)[C@@H](Cc1ccccc1)NC(=O)[C@H](N)Cc1ccccc1)C(=O)N[C@H](CCCCN)C(=O)NCCOCCO [Compound 13-51] | > 10000 nM | 5.15 nM | 0.27 nM | 349 nM | – | – | –
CCOC(=O)C(=O)NC1CCN(C(=O)[C@@H](CCCCN)NC(=O)[C@@H](CC(C)C)NC(=O)[C@@H](Cc2ccccc2)NC(=O)[C@H](N)Cc2ccccc2)CC1 [Compound 13-31] | > 10000 nM | 17.9 nM | 0.28 nM | 172 nM | – | – | –
CC(C)C[C@@H](NC(=O)[C@@H](Cc1ccccc1)NC(=O)[C@H](N)Cc1ccccc1)C(=O)N[C@H](CCCCN)C(=O)NC1CCN(C(=O)C(N)=O)CC1 [Compound 13-34] | > 10000 nM | 20.2 nM | 3.33 nM | 2980 nM | – | – | –
COC(=O)[C@@H](N)CNC(=O)[C@@H](CCCCN)NC(=O)[C@@H](CC(C)C)NC(=O)[C@@H](Cc1ccccc1)NC(=O)[C@H](N)Cc1ccccc1 [Compound 13-12] | > 10000 nM | 7.07 nM | 6.6 nM | > 10000 nM | – | – | –
COCCOCCNC(=O)[C@@H](CCCCN)NC(=O)[C@@H](CC(C)C)NC(=O)[C@@H](Cc1ccccc1)NC(=O)[C@H](N)Cc1ccccc1 [Compound 13-4] | > 10000 nM | 13.5 nM | 2.8 nM | > 10000 nM | – | – | –
COC(=O)C1(N)CCN(C(=O)[C@@H](CCCCN)NC(=O)[C@@H](CC(C)C)NC(=O)[C@@H](Cc2ccccc2)NC(=O)[C@H](N)Cc2ccccc2)C1 (stereo partly drawn) [Compound 13-62] | – | 2.96 nM | 0.2 nM | – | > 10000 nM | > 10000 nM | –
CCOC(=O)C(N)C(=O)NC1CCN(C(=O)[C@@H](CCCCN)NC(=O)[C@@H](CC(C)C)NC(=O)[C@@H](Cc2ccccc2)NC(=O)[C@H](N)Cc2ccccc2)CC1 (stereo partly drawn) [Compound 13-39] | > 10000 nM | 14.7 nM | 0.23 nM | > 10000 nM | – | – | –
CNC(=O)N1CCN(C(=O)[C@@H](CCCCN)NC(=O)[C@@H](CC(C)C)NC(=O)[C@@H](Cc2ccccc2)NC(=O)[C@H](N)Cc2ccccc2)CC1 [Compound 13-58] | > 10000 nM | 10.8 nM | 0.29 nM | > 10000 nM | – | – | –
COCCNC(=O)[C@@H](CCCCN)NC(=O)[C@@H](CC(C)C)NC(=O)[C@@H](Cc1ccccc1)NC(=O)[C@H](N)Cc1ccccc1 [Compound 13-2] | > 10000 nM | 8.31 nM | 1.37 nM | > 10000 nM | – | – | –
CC(C)C[C@@H](NC(=O)[C@@H](Cc1ccccc1)NC(=O)[C@H](N)Cc1ccccc1)C(=O)N[C@H](CCCCN)C(=O)N1CCC(NC(=O)C[C@H](N)C(N)=O)CC1 [Compound 13-38] | – | 6.08 nM | 0.3 nM | – | > 10000 nM | > 10000 nM | –
CC(C)C[C@@H](NC(=O)[C@@H](Cc1ccccc1)NC(=O)[C@H](N)Cc1ccccc1)C(=O)N[C@H](CCCCN)C(=O)N1CCN(C(=O)NC2CC2)CC1 [Compound 13-48] | – | 5.69 nM | 0.36 nM | – | > 10000 nM | > 10000 nM | –
CC(C)C[C@@H](NC(=O)[C@@H](Cc1ccccc1)NC(=O)[C@H](N)Cc1ccccc1)C(=O)N[C@H](CCCCN)C(=O)N1CCC(NC(=O)/C=C/C(=O)O)CC1 [Compound 13-20] | > 10000 nM | 18 nM | 1.44 nM | > 10000 nM | – | – | –
CCNC(=O)C(=O)N1CCN(C(=O)[C@@H](CCCCN)NC(=O)[C@@H](CC(C)C)NC(=O)[C@@H](Cc2ccccc2)NC(=O)[C@H](N)Cc2ccccc2)CC1 [Compound 13-43] | > 10000 nM | 8.7 nM | 0.33 nM | > 10000 nM | – | – | –
CC(C)C[C@@H](NC(=O)[C@@H](Cc1ccccc1)NC(=O)[C@H](N)Cc1ccccc1)C(=O)N[C@H](CCCCN)C(=O)N1CCC(N)(C(=O)OCCN)C1 (stereo partly drawn) [Compound 55] | > 10000 nM | 9.36 nM | 0.45 nM | 8530 nM | – | – | –
CC(C)C[C@@H](NC(=O)[C@@H](Cc1ccccc1)NC(=O)[C@H](N)Cc1ccccc1)C(=O)N[C@H](CCCCN)C(=O)N1CCC2(CC1)NC(=O)NC2=O [Compound 71] | > 10000 nM | 5.4 nM | 0.16 nM | – | – | – | > 10000 nM
CNC(=O)NC1CCN(C(=O)[C@@H](CCCCN)NC(=O)[C@@H](CC(C)C)NC(=O)[C@@H](Cc2ccccc2)NC(=O)[C@H](N)Cc2ccccc2)CC1 [Compound 13-60] | – | 14.3 nM | 0.42 nM | – | > 10000 nM | > 10000 nM | –
